Holding throughout (experiment): biochemical
Common to all, as to type: binding

Assay [1] has as its target HLA-A*0201 (HLA-A2.1) (Homo sapiens, UniProt P04439, D140Y/D185E/D98H/E176V/E277Q/G131W/G231S/I119V/I121R/I166T/I218V/L300P/L318F/N151K/N90K/P208A/P217A/Q86G/Q94H/R138H/R169H/T345S).
In assay [2] the target is A*0202 (Homo sapiens, UniProt P04439, D140Y/D185E/D98H/E176V/E277Q/G131W/G231S/I119L/I121R/I166T/I218V/L180W/L300P/L318F/N151K/N90K/P208A/P217A/Q67R/Q86G/Q94H/R138H/R169H/T345S).
For assay [3], the target named is A*0203 (Homo sapiens, UniProt P04439, A173T/D140Y/D185E/D98H/E277Q/G131W/G231S/I119V/I121R/I166T/I218V/L180W/L300P/L318F/N151K/N90K/P208A/P217A/Q86G/Q94H/R138H/R169H/T345S).
Assay [4] concerns the target A*6802 (Homo sapiens, UniProt P04439, A269V/D140Y/D185E/E176V/E277Q/E87N/F33Y/G231S/I121R/I166T/I218V/L180W/L300P/L318F/N151K/P208A/P217A/Q86R/R138H/R169H/S129P/T345S/V36M).
Assay [5] addresses A*0206 (Homo sapiens, UniProt P04439, D140Y/D185E/D98H/E176V/E277Q/F33Y/G131W/G231S/I119V/I121R/I166T/I218V/L300P/L318F/N151K/N90K/P208A/P217A/Q86G/Q94H/R138H/R169H/T345S).

No end group written: not given here. A value given as a limit tells only on which side of the number the result lay.

As to `CC[C@H](C)[C@H](NC(=O)[C@@H](NC(=O)[C@H](CC(C)C)NC(=O)[C@@H](N)CS)[C@@H](C)O)C(=O)N[C@@H](Cc1c[nH]cn1)C(=O)N[C@@H](Cc1ccc(O)cc1)C(=O)N[C@@H](CC(N)=O)C(=O)N[C@@H](Cc1ccc(O)cc1)C(=O)N[C@H](C(=O)O)C(C)C` [Peptide 1323.07], the 50% inhibitory concentration (IC50) (in general, the point on the concentration scale where inhibition reaches its midpoint) stood at 270 nM in assay [1], 216 nM in assay [2], 65 nM in assay [3] and 640 nM in assay [4].
As to `CC[C@H](C)[C@H](NC(=O)[C@@H](NC(=O)[C@@H](NC(=O)[C@@H](NC(=O)[C@@H](NC(=O)[C@@H](NC(=O)[C@@H](N)CCCNC(=N)N)[C@@H](C)O)[C@@H](C)O)C(C)C)[C@@H](C)O)[C@@H](C)O)C(=O)N[C@H](C(=O)N[C@H](C(=O)N[C@@H](Cc1ccc(O)cc1)C(=O)N[C@H](C(=O)O)C(C)C)C(C)C)[C@@H](C)O` [Peptide 9013.0304], the figures for the IC50 in assay [2], in assay [5] and in assay [4] were 9.6 nM, 73 nM and 0.18 nM, respectively.
ALDGNDISV [Peptide 1578.33]: the half-inhibitory concentration (IC50) in assay [1] was 40 nM; in assay [2] it was 41 nM; in assay [5] it was 48 nM; in assay [4], more than 20000 nM.
As to ELQNTTYLWWV [Peptide 9013.0325], the half-inhibitory concentration (IC50) is 3000 nM in assay [1], more than 20000 nM in assay [5] and 157 nM in assay [4].
For the molecule FLDAFKKFL [Peptide 1578.31], the 50% inhibitory concentration (IC50) in assay [1] is 158 nM; in assay [2], 25 nM; in assay [5], 420 nM; in assay [4] it was more than 20000 nM.
With FLGAFKKFL [Peptide 1578.22], the half-inhibitory concentration (IC50) was 5840 nM in assay [1], 10 nM in assay [2], 11800 nM in assay [5] and more than 20000 nM in assay [4].
On to GLMIGVLVGVA [Peptide 9013.0345], for which the IC50 is 2190 nM in assay [1], 39 nM in assay [2], 3300 nM in assay [5] and more than 20000 nM in assay [4].
With GLNLSLSCHAA [Peptide 9013.0312], the IC50 is 1420 nM in assay [1], 47 nM in assay [2], more than 20000 nM in assay [5] and more than 20000 nM in assay [4].
For the molecule GQFRVYPEV [Peptide 9013.0038], the concentration for half-maximal inhibition (IC50) in assay [5] is 43 nM; in assay [4], more than 20000 nM.
For ILNDTGFYT [Peptide 9013.0036], the half-maximal inhibitory concentration (IC50) in assay [1] was 213 nM; in assay [2], 14 nM; in assay [5], 3810 nM; in assay [4], more than 20000 nM.
The matching figures for ILQNDTGFYT [Peptide 9013.0147]: 902 nM, 187 nM, 11100 nM and more than 20000 nM.
With IQNDTGFYT [Peptide 9013.0034], the IC50 is more than 20000 nM in assay [1], 3740 nM in assay [2], 474 nM in assay [5] and more than 20000 nM in assay [4].
With IQNIIQNDV [Peptide 9013.0032], the IC50 in assay [1] was 16200 nM; in assay [2] it was 1930 nM; in assay [4] it was more than 20000 nM.
KILQQLLFI [Peptide 1525.21]: the IC50 in assay [1] was 41 nM; in assay [5], 51 nM; in assay [4], more than 20000 nM.
As for KLMSNLLSI [Peptide 1578.21], the IC50 in assay [1] was 16 nM; in assay [2], 2.7 nM; in assay [5] it was 34 nM; in assay [4], more than 20000 nM.
KLTQLCVTL [Peptide 1537.02]: the 50% inhibitory concentration (IC50) was 24 nM in assay [1], 2.7 nM in assay [2], 131 nM in assay [5] and more than 20000 nM in assay [4].
For the molecule LLQQYCLYL [Peptide 1578.01], the figures for the half-maximal inhibitory concentration (IC50) in assay [1], in assay [2] and in assay [3] were 224 nM, 11 nM and 17 nM, respectively.
Regarding LTIESTPFNVV [Peptide 9013.0267], the IC50 turned out to be 1090 nM in assay [1], 188 nM in assay [2], 77 nM in assay [5] and 123 nM in assay [4].
Consider MLGVLVGVALI [Peptide 9013.0349], for which the IC50 in assay [1] was 4960 nM; in assay [2] it was 432 nM; in assay [5], 4730 nM; in assay [4] it was 8790 nM.
As for NLAEGKEVLLL [Peptide 9013.0271], the IC50 is 7590 nM in assay [1], 18 nM in assay [2], more than 20000 nM in assay [5] and more than 20000 nM in assay [4].
On to QQHTQELFV [Peptide 9013.0078], for which the figures for the 50% inhibitory concentration (IC50) in assay [1], in assay [2] and in assay [4] were 2480 nM, 5290 nM and more than 20000 nM, respectively.
In the case of RILQQPLFI [Peptide 1545.03], the 50% inhibitory concentration (IC50) in assay [1] was 140 nM; in assay [2], 9910 nM; in assay [5] it was 872 nM; in assay [4], more than 20000 nM.
For RLENAILFTV [Peptide 1593.60], the values for the half-maximal inhibitory concentration (IC50) in assay [2], in assay [3] and in assay [4] were 24 nM, 160 nM and 15800 nM, respectively.
As to RLIIGYVIGT [Peptide 9013.0140], the IC50 stood at 1870 nM in assay [1], 636 nM in assay [3] and 14600 nM in assay [4].
For the molecule RLLLTASLLV [Peptide 9013.0117], the concentration for half-maximal inhibition (IC50) was 57 nM in assay [1], 123 nM in assay [2] and 5940 nM in assay [4].
On to RMLQQLLFT [Peptide 1525.17], for which the IC50 was 1870 nM in assay [2] and 493 nM in assay [3].
In the case of RTLQQLMFI [Peptide 1525.23], the IC50 in assay [2] was 1820 nM; in assay [5] it was 55 nM; in assay [4], more than 20000 nM.
As for SLACSWGMVV [Peptide 1578.02], the figures for the 50% inhibitory concentration (IC50) in assay [1], in assay [2] and in assay [3] were 805 nM, 22 nM and 8.5 nM, respectively.
As to STQELFIPNV [Peptide 9013.0181], the IC50 in assay [1] was found to be 5500 nM; in assay [2] it was 2100 nM; in assay [4], 854 nM.
On to TQQATPGPV [Peptide 9013.0027], for which the IC50 is more than 20000 nM in assay [1], 5870 nM in assay [5] and more than 20000 nM in assay [4].
TTAKLTIESV [Peptide 9013.0125]: the half-maximal inhibitory concentration (IC50) is more than 20000 nM in assay [1], 4070 nM in assay [2] and 53 nM in assay [4].
TTQDVSLEV [Peptide 1593.54]: the concentration for half-maximal inhibition (IC50) came to 1340 nM in assay [1], 2350 nM in assay [2], 674 nM in assay [5] and 9 nM in assay [4].
As to TVQDVSLEV [Peptide 1593.55], the IC50 in assay [2] was 483 nM; in assay [3], 56 nM; in assay [4] it was 15 nM.
As for VAWDSVYYM [Peptide 1578.46], the IC50 came out at 603 nM in assay [2], 1330 nM in assay [3] and 5150 nM in assay [4].
Regarding VAWDSVYYV [Peptide 1593.57], the IC50 in assay [1] came out at 4.4 nM; in assay [2] it was 35 nM; in assay [5] it was 3.3 nM; in assay [4] it was 48 nM.
VLEGKEVLL [Peptide 9013.0019]: the IC50 in assay [1] is 2910 nM; in assay [2], 18 nM; in assay [5], more than 20000 nM; in assay [4], more than 20000 nM.
VLFTCEPEA [Peptide 9013.0089]: the concentration for half-maximal inhibition (IC50) is 240 nM in assay [1], 70 nM in assay [2], 4570 nM in assay [5] and more than 20000 nM in assay [4].
For VQWAYDNDV [Peptide 86.0190], the IC50 worked out at 4430 nM in assay [1], 89 nM in assay [2], 428 nM in assay [5] and 3590 nM in assay [4].
VQWAYDNEL [Peptide 86.0196]: the IC50 in assay [2] is 190 nM; in assay [5] it was 1100 nM; in assay [4], more than 20000 nM.
Consider VVWDSIYYI [Peptide 1578.53], for which the half-maximal inhibitory concentration (IC50) in assay [1] came to 13 nM; in assay [2] it was 39 nM; in assay [5], 11 nM; in assay [4], 52 nM.
For WLNGQSLPV [Peptide 9013.0090], the half-maximal inhibitory concentration (IC50) in assay [2] worked out at 8.6 nM; in assay [3] it was 6.4 nM.
WLNYTPGPGI [Peptide 73.0129] had an IC50 in assay [5] of more than 20000 nM.
Consider YACFVSNLAV [Peptide 9013.0248], for which the half-inhibitory concentration (IC50) was determined as 1390 nM in assay [1], 754 nM in assay [2], 71 nM in assay [5] and 95 nM in assay [4].
With YIDDYLRNL [Peptide 1578.39], the figures for the 50% inhibitory concentration (IC50) in assay [2], in assay [3] and in assay [4] were 27 nM, 380 nM and more than 20000 nM, respectively.
Regarding YLHNRLVVFT [Peptide 86.0075], the concentration for half-maximal inhibition (IC50) in assay [2] turned out to be 120 nM; in assay [5] it was 15200 nM; in assay [4] it was 1600 nM.
For the molecule YLLHVIKSDL [Peptide 9013.0152], the results for the 50% inhibitory concentration (IC50) in assay [1], in assay [2] and in assay [5] were 86 nM, 22 nM and 62 nM, respectively.
Turning to YTNWKFIYL [Peptide 1578.47], the half-maximal inhibitory concentration (IC50) in assay [5] came out at 84 nM; in assay [4] it was 146 nM.
With YVVWDSIYYI [Peptide 1578.52], the 50% inhibitory concentration (IC50) in assay [1] came to 77 nM; in assay [2] it was 127 nM; in assay [5], 49 nM.

The values are drawn from US9340577B2, “HLA binding motifs and peptides and their uses” (priority 1992, dated 2016).
